The compounds below were run on HEK293-STF3A cells (assay: STF3A assay (luciferase reporter)). Conditions: Homo sapiens, 24 h, 1 day of treatment.
Format: cell-based
Description: HEK293-STF cell line was modified from Human embryonic kidney cell line HEK293 transfected with the STF reporter. HEK293-STF3A cell line was further modified from HEK293-STF cell line to express Wnt3A. This cell line was used to identify compounds that regulate either early or late signalling components of the Wnt pathway. L-Wnt3A (ATCC, #CRL-2647) cell line was used for providing Wnt3A conditioned media. The three cell lines were grown in DMEM (Dulbecco's Modified Eagle Medium) with 10% FBS (fetal bovine serum) incubated in 37° C. with 5% CO2. 2×10^4 HEK293-STF3A cells in 75 μl culture media were seeded in each well of white 96 well plates (Greiner #655098) and incubated overnight at 37° C. 25 μl serially diluted compound was added to the cells to give final concentration of 50 μM to 1.5 nM. After 1 day of treatment, 100 μl of Steady-Glo® Luciferase Assay reagent (#E2520, Promega) was added to each well and incubated for 10 minutes at room temperature. Luminescence was measured using Tecan Safire2® plate reader.
With Cn1c(=O)c2c(ncn2CC(=O)Nc2ccc(N3CCN(C(=O)c4ccccc4)CC3)cn2)n(C)c1=O [Compound 45, N-(5-(4-benzoylpiperazin-1-yl)pyridin-2-yl)-2-(1,3-dimethyl-2,6-dioxo-2,3-dihydro-1H-purin-7(6H)-yl)acetamide] the IC50 was under 100 nM.
For C[C@H]1CN(C(=O)c2ccccc2)CCN1c1ccc(NC(=O)Cn2cnc3c2c(=O)n(C)c(=O)n3C)cc1 [Compound 46, (S)—N-(4-(4-benzoyl-2-methylpiperazin-1-yl)phenyl)-2-(1,3-dimethyl-2,6-dioxo-2,3-dihydro-1H-purin-7(6H)-yl)acetamide], the IC50 was under 1000 nM.
Cn1c(=O)c2c(ncn2CC(=O)Nc2ccc(N3CCN(C(=O)CC(C)(C)C)CC3)cn2)n(C)c1=O [Compound 47, 2-(1,3-dimethyl-2,6-dioxo-2,3-dihydro-1H-purin-7(6H)-yl)-N-(5-(4-(3,3-dimethylbutanoyl)piperazin-1-yl)pyridin-2-yl)acetamide] showed an IC50 of under 1000 nM.
Work on CC(=O)N1CCN(c2ccc(NC(=O)Cn3cnc4c3c(=O)n(C)c(=O)n4C)nc2)CC1 [Compound 48] yielded an IC50 of under 1000 nM.
In the case of Cn1c(=O)c2c(ncn2CC(=O)Nc2ccc(N3CCN(C(=O)c4ccc(Cl)cc4)CC3)cn2)n(C)c1=O [Compound 49, N-(5-(4-(4-chlorobenzoyl)piperazin-1-yl)pyridin-2-yl)-2-(1,3-dimethyl-2,6-dioxo-2,3-dihydro-1H-purin-7(6H)-yl)acetamide], the IC50 is reported as under 1000 nM.
Work on Cn1c(=O)c2c(ncn2CC(=O)Nc2ccc(N3CCN(C(=O)c4cccs4)CC3)cn2)n(C)c1=O [Compound 50, 2-(1,3-dimethyl-2,6-dioxo-2,3-dihydro-1H-purin-7(6H)-yl)-N-(5-(4-(thiophene-2-carbonyl)piperazin-1-yl)pyridin-2-yl)acetamide] yielded an IC50 of under 1000 nM.
With Cn1c(=O)c2c(ncn2CC(=O)Nc2ccc(N3CCN(C(=O)c4cccc(F)c4)CC3)cn2)n(C)c1=O [Compound 51, 2-(1,3-dimethyl-2,6-dioxo-2,3-dihydro-1H-purin-7(6H)-yl)-N-(5-(4-(3-fluorobenzoyl)piperazin-1-yl)pyridin-2-yl)acetamide] the IC50 was under 1000 nM.
Cn1c(=O)c2c(ncn2CC(=O)Nc2ccc(N3CCN(C(=O)c4ccc(F)cc4)CC3)cn2)n(C)c1=O [Compound 52, 2-(1,3-dimethyl-2,6-dioxo-2,3-dihydro-1H-purin-7(6H)-yl)-N-(5-(4-(4-fluorobenzoyl)piperazin-1-yl)pyridin-2-yl)acetamide] showed an IC50 of under 1000 nM.
For Cn1c(=O)c2c(ncn2CC(=O)Nc2ccc(N3CCN(Cc4ccccc4)CC3)cn2)n(C)c1=O [Compound 53, N-(5-(4-benzylpiperazin-1-yl)pyridin-2-yl)-2-(1,3-dimethyl-2,6-dioxo-2,3-dihydro-1H-purin-7(6H)-yl)acetamide], the IC50 was under 100 nM.
With Cn1c(=O)c2c(ncn2CC(=O)Nc2ccc(N3CCN(Cc4cc(F)cc(F)c4)CC3)cn2)n(C)c1=O [Compound 54, N-(5-(4-(3,5-difluorobenzyl)piperazin-1-yl)pyridin-2-yl)-2-(1,3-dimethyl-2,6-dioxo-2,3-dihydro-1H-purin-7(6H)-yl)acetamide] the IC50 was under 100 nM.
With Cn1c(=O)c2c(ncn2CC(=O)Nc2ccc(N3CCN(Cc4ccccc4F)CC3)cn2)n(C)c1=O [Compound 55, 2-(1,3-dimethyl-2,6-dioxo-2,3-dihydro-1H-purin-7(6H)-yl)-N-(5-(4-(2-fluorobenzyl)piperazin-1-yl)pyridin-2-yl)acetamide] the IC50 was under 5000 nM.
With Cn1c(=O)c2c(ncn2CC(=O)Nc2ccc(N3CCN(Cc4ccc(F)cc4)CC3)cn2)n(C)c1=O [Compound 56, 2-(1,3-dimethyl-2,6-dioxo-2,3-dihydro-1H-purin-7(6H)-yl)-N-(5-(4-(4-fluorobenzyl)piperazin-1-yl)pyridin-2-yl)acetamide] the IC50 was under 1000 nM.
Cn1c(=O)c2c(ncn2CC(=O)Nc2ccc(N3CCN(Cc4cccc(F)c4)CC3)cn2)n(C)c1=O [Compound 57, 2-(1,3-dimethyl-2,6-dioxo-2,3-dihydro-1H-purin-7(6H)-yl)-N-(5-(4-(3-fluorobenzyl)piperazin-1-yl)pyridin-2-yl)acetamide] showed an IC50 of under 100 nM.
In the case of C[C@H](C(=O)Nc1ccc(-c2ccsc2)cc1)n1cnc2c1c(=O)n(C)c(=O)n2C [Compound 58, (R)-2-(1,3-dimethyl-2,6-dioxo-2,3-dihydro-1H-purin-7(6H)-yl)-N-(4-(thiophen-3-yl)phenyl)propanamide], the IC50 is reported as over 10000 nM.
In the case of C[C@@H](C(=O)Nc1ccc(-c2ccsc2)cc1)n1cnc2c1c(=O)n(C)c(=O)n2C [Compound 59, (S)-2-(1,3-dimethyl-2,6-dioxo-2,3-dihydro-1H-purin-7(6H)-yl)-N-(4-(thiophen-3-yl)phenyl)propanamide], the IC50 is reported as under 100 nM.
In the case of Cn1c(=O)c2c(ncn2C(C)(C)C(=O)Nc2ccc(-c3ccsc3)cc2)n(C)c1=O [Compound 60, 2-(1,3-dimethyl-2,6-dioxo-2,3-dihydro-1H-purin-7(6H)-yl)-2-methyl-N-(4-(thiophen-3-yl)phenyl)propanamide], the IC50 is reported as under 1000 nM.
Compound CC(C(=O)Nc1ccc(-c2ccsc2)cc1)n1cnc2c1c(=O)n(C)c(=O)n2C (centres unmarked) [Compound 61, 2-(1,3-dimethyl-2,6-dioxo-2,3-dihydro-1H-purin-7(6H)-yl)-N-(4-(thiophen-3-yl)phenyl)propanamide] has an IC50 of under 100 nM.
In the case of CC(C(=O)Nc1ccc(-c2ccccc2)cc1)n1cnc2c1c(=O)n(C)c(=O)n2C (centres unmarked) [Compound 62, N-(biphenyl-4-yl)-2-(1,3-dimethyl-2,6-dioxo-2,3-dihydro-1H-purin-7(6H)-yl)propanamide], the IC50 is reported as under 100 nM.
CC(C(=O)Nc1ccc(N2CCN(Cc3cc(F)cc(F)c3)CC2)cc1)n1cnc2c1c(=O)n(C)c(=O)n2C (centres unmarked) [Compound 63, N-(4-(4-(3,5-difluorobenzyl)piperazin-1-yl)phenyl)-2-(1,3-dimethyl-2,6-dioxo-2,3-dihydro-1H-purin-7(6H)-yl)propanamide] showed an IC50 of under 1000 nM.
With CCC(C(=O)Nc1ccc(-c2ccsc2)cc1)n1cnc2c1c(=O)n(C)c(=O)n2C (centres unmarked) [Compound 64, 2-(1,3-dimethyl-2,6-dioxo-2,3-dihydro-1H-purin-7(6H)-yl)-N-(4-(thiophen-3-yl)phenyl)butanamide] the IC50 was under 100 nM.
Compound CC(C)C(C(=O)Nc1ccc(-c2ccccc2)cc1)n1cnc2c1c(=O)n(C)c(=O)n2C (centres unmarked) [Compound 65, N-(biphenyl-4-yl)-2-(1,3-dimethyl-2,6-dioxo-2,3-dihydro-1H-purin-7(6H)-yl)-3-methylbutanamide] has an IC50 of over 10000 nM.
Cc1nc2c(c(=O)n(C)c(=O)n2C)n1CC(=O)Nc1ccc(-c2ccsc2)cc1 [Compound 66, N-(4-(thiophen-3-yl)phenyl)-2-(1,3,8-trimethyl-2,6-dioxo-2,3-dihydro-1H-purin-7(6H)-yl)acetamide] showed an IC50 of under 100 nM.
Cc1nc2c(c(=O)n(C)c(=O)n2C)n1[C@@H](C)C(=O)Nc1ccc(-c2nccs2)cc1 [Compound 67, (S)—N-(4-(thiazol-2-yl)phenyl)-2-(1,3,8-trimethyl-2,6-dioxo-2,3-dihydro-1H-purin-7(6H)-yl)propanamide] was tested, and the IC50 was under 1000 nM.
Cn1c(=O)c2c(nc(C3CC3)n2CC(=O)Nc2ccc(-c3ccsc3)cc2)n(C)c1=O [Compound 68, 2-(8-cyclopropyl-1,3-dimethyl-2,6-dioxo-2,3-dihydro-1H-purin-7(6H)-yl)-N-(4-(thiophen-3-yl)phenyl)acetamide] showed an IC50 of under 100 nM.
Compound Cn1c(=O)c2c(nc(-c3ccccc3)n2CC(=O)Nc2ccc(-c3ccsc3)cc2)n(C)c1=O [Compound 69, 2-(1,3-dimethyl-2,6-dioxo-8-phenyl-2,3-dihydro-1H-purin-7(6H)-yl)-N-(4-(thiophen-3-yl)phenyl)acetamide] has an IC50 of under 100 nM.
Work on Cn1c(=O)c2c(nc(C(F)(F)F)n2CC(=O)Nc2ccc(-c3ccsc3)cc2)n(C)c1=O [Compound 70, 2-(1,3-dimethyl-2,6-dioxo-8-(trifluoromethyl)-2,3-dihydro-1H-purin-7(6H)-yl)-N-(4-(thiophen-3-yl)phenyl)acetamide] yielded an IC50 of under 100 nM.
In the case of O=C(Cn1cnc2[nH]c(=O)[nH]c(=O)c21)Nc1ccc(-c2ccsc2)cc1 [Compound 71, 2-(2,6-dioxo-2,3-dihydro-1H-purin-7(6H)-yl)-N-(4-(thiophen-3-yl)phenyl) acetamide], the IC50 is reported as over 10000 nM.
For CCn1c(=O)c2c(ncn2CC(=O)Nc2ccc(-c3ccsc3)cc2)n(CC)c1=O [Compound 72, 2-(1,3-diethyl-2,6-dioxo-2,3-dihydro-1H-purin-7(6H)-yl)-N-(4-(thiophen-3-yl)phenyl)acetamide], the IC50 was under 100 nM.
For CN(C)c1nc2c(c(=O)n(C)c(=O)n2C)n1CC(=O)Nc1ccc(-c2ccsc2)cc1 [Compound 73, 2-(8-(dimethylamino)-1,3-dimethyl-2,6-dioxo-2,3-dihydro-1H-purin-7(6H)-yl)-N-(4-(thiophen-3-yl)phenyl)acetamide], the IC50 was under 100 nM.
Cn1c(=O)c2c(nc(N3CCOCC3)n2CC(=O)Nc2ccc(-c3ccsc3)cc2)n(C)c1=O [Compound 74, 2-(1,3-dimethyl-8-morpholino-2,6-dioxo-2,3-dihydro-1H-purin-7(6H)-yl)-N-(4-(thiophen-3-yl)phenyl)acetamide] was tested, and the IC50 was under 1000 nM.
With Cn1c(=O)c2c(nc(-c3cccs3)n2CC(=O)Nc2ccc(-c3ccsc3)cc2)n(C)c1=O [Compound 75, 2-(1,3-dimethyl-2,6-dioxo-8-(thiophen-2-yl)-2,3-dihydro-1H-purin-7(6H)-yl)-N-(4-(thiophen-3-yl)phenyl)acetamide] the IC50 was under 1000 nM.
Work on Cn1c(=O)c2c(nc(Br)n2CC(=O)Nc2ccc(-c3ccsc3)cc2)n(C)c1=O [Compound 76, 2-(8-bromo-1,3-dimethyl-2,6-dioxo-2,3-dihydro-1H-purin-7(6H)-yl)-N-(4-(thiophen-3-yl)phenyl)acetamide] yielded an IC50 of under 100 nM.

— patent US12559495B2 (Agency for Science, Technology and Research, priority 2013, dated 2026)
